# Measurements from patent US4493843A, “Indole and indoline carboxylic acid compounds and method of use” (May & Baker Limited, priority 1980, dated 1985).
# Like-named read-outs stand apart in the source and are kept apart here.
# Tested on: serum cholesterol and serum triglycerides
# Assay: Hypolipidaemic activity in rats (compound in diet, last 7 of 10 days)
# Format: in vivo, Male Wistar rats
# Details: Rattus norvegicus, po, 168 h, 7 days; for change in vivo at 0.2 % strength: 0.2 % w/w dose in diet; for change in vivo at 0.1 % strength: 0.1 % w/w dose in diet
# Description: Hypolipidaemic Activity in Rats
# Male Wistar rats each weighing between 120 and 150 g were caged in groups of eight and fed a powdered diet for 10 days. For the last 7 days of that period the test compound was administered orally by mixing the compound in the diet and allowing the animals to feed normally. Food consumption was measured on day 9 for each group.
# At noon on day 10 the animals were killed by inhalation of carbon dioxide from solid carbon dioxide. A sample of blood was removed by cardiac puncture and the serum cholesterol and serum triglycerides were analysed by means of an autoanalyser.
# Control groups (receiving only the normal, unmedicated diet) were included with each test.
# The percentage reductions in the concentrations of serum cholesterol and serum triglycerides were calculated by comparison with the simultaneous controls, for each concentration of the test compound used.
# [1] = read-out: % change in serum cholesterol compared with control
# [2] = read-out: % change in serum triglycerides compared with control
Structure (SMILES),change in vivo at 0.2 % strength [1] [%],change in vivo at 0.2 % strength [2] [%],change in vivo at 0.1 % strength [1] [%],change in vivo at 0.1 % strength [2] [%]
"CCCCCCCCc1c[nH]c2cc(C(=O)OC)ccc12 [Compound AZZ, methyl 3-(n-octyl)indole-6-carboxylate]",-18,24,–,–
"CCCCCCCCCCCCCCCCCc1cc2ccc(C(=O)O)cc2[nH]1 [Compound B, 2-(n-heptadecyl)indole-6-carboxylic acid]",5,-4,–,–
"CCCCCCCCCCCCCCCc1cc2cc(C(=O)OCC)ccc2[nH]1 [Compound BB, ethyl 2-(n-pentadecyl)indole-5-carboxylate]",-19,-39,–,–
"CCCCCCCCCCCCCCCCc1c[nH]c2ccc(C(=O)OC)cc12 [Compound BCC, methyl 3-(n-hexadecyl)indole-5-carboxylate]",2,16,–,–
"CCCCCCCCCCCCc1c[nH]c2cc(C(=O)O)ccc12 [Compound BDD, 3-(n-dodecyl)indole-6-carboxylic acid]",-2,-5,–,–
"CCCCCCCCc1c[nH]c2cc(C(=O)O)ccc12 [Compound BEE, 3-(n-octyl)indole-6-carboxylic acid]",-19,-18,–,–
"CCCCCCCCCCCCCCCCc1c[nH]c2cc(C(=O)O)ccc12 [Compound BFF, 3-(n-hexadecyl)indole-6-carboxylic acid]",7,-17,–,–
"CCCCCCCCCCCCCCCCCCc1c[nH]c2cc(C(=O)O)ccc12 [Compound BGG, 3-(n-octadecyl)indole-6-carboxylic acid]",-7,-7,–,–
"CCCCCCCCCCCCCCCCc1c[nH]c2ccc(C(=O)O)cc12 [Compound BHH, 3-(n-hexadecyl)indole-5-carboxylic acid]",-6,-10,–,–
"CCCCCCCCCCCCCCCCCCc1c[nH]c2ccc(C(=O)O)cc12 [Compound BSS, 3-(n-octadecyl)indole-5-carboxylic acid]",-9,-11,–,–
"CCCCCCCCc1c[nH]c2ccc(C(=O)O)cc12 [Compound BTT, 3-(n-octyl)indole-5-carboxylic acid]",0,15,–,–
"CCCCCCCCCCCc1cc2ccc(C(=O)O)cc2[nH]1 [Compound C, 2-(n-undecyl)indole-6-carboxylic acid]",–,–,-28,-39
"CCCCCCCCCCCCc1cc2ccc(C(=O)OCC)cc2[nH]1 [Compound CC, ethyl 2-(n-dodecyl)indole-6-carboxylate]",-17,-57,–,–
"CCCCCCCCCCCC1Nc2cc(C(=O)O)ccc2C1C (stereo not drawn) [Compound CNN, 2(RS),3(RS)-2-(n-undecyl)-3-methylindoline-6-carboxylic acid]",-31,-72,–,–
"CCCCCCCc1cc2cc(C(=O)OCC)ccc2[nH]1 [Compound DD, ethyl 2-(n-heptyl)indole-5-carboxylate]",-6,-25,–,–
"CCCCCCCCCCCCCCCCCc1cc2cc(C(=O)O)ccc2[nH]1 [Compound E, 2-(n-heptadecyl)indole-5-carboxylic acid]",-54,-65,-42,-55
"CCCCCCCCCCCCCCCc1cc2c(C(=O)OCC)cccc2[nH]1 [Compound EE, ethyl 2-(n-pentadecyl)indole-4-carboxylate]",-5,-2,–,–
"CCCCCCCCCCCc1cc2cc(C(=O)O)ccc2[nH]1 [Compound F, 2-(n-undecyl)indole-5-carboxylic acid]",-37,-73,-18,-43
